Laboratory results taken from US20020136711A1, “Compositions used in human treatment” (priority 1998, published 2002).

Assays:
[1] = clinical trials: absorbability of chelated potassium; assay type: in vivo, human; details: potassium bonded or chelated with an amino acid or a simple sugar
From the text: A preferred aspect of the present invention is the administering of potassium when bonded or chelated with an amino acid or a simple sugar.

skin flushing or rash = details: larger doses of niacin
From the text: Typically, the form of niacin used may produce a flushing, redness or rash to the skin when consumed in large doses. […] Inositol is molecularly bonded to niacin, and in conjunction therewith serves to slow the absorption of nicotinic acid.

Structure (SMILES)	absorbability and assimilation into the bloodstream [1]	side-effects (flushing, redness or rash to the skin) at larger doses (skin flushing or rash)
O=C([O-])[C@H](O)[C@@H](O)[C@H](O)[C@H](O)CO.[K+] [potassium gluconate]	better absorbability and assimilation into the bloodstream	–
O=C(O[C@H]1[C@H](OC(=O)c2cccnc2)[C@@H](OC(=O)c2cccnc2)[C@H](OC(=O)c2cccnc2)[C@@H](OC(=O)c2cccnc2)[C@H]1OC(=O)c1cccnc1)c1cccnc1 [niacin inositol hexanicotinate]	–	no side-effects
